Source: patent US8173635B2, “Kinase inhibitors” (Vertex Pharmaceuticals Incorporated, priority 2007, dated 2012)
pKi: −log10 of the molar value. Like-named read-outs stand apart in the source and are kept apart here.

Columns and labels:
Format in all cases: biochemical
[1] = target: PKC theta kinase (Homo sapiens, UniProt Q04759); assay: PKC theta kinase inhibition, coupled-enzyme NADH absorbance assay (Ki)
Summary of the method: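 Coupled-enzyme kinase assay following NADH absorbance at 340 nm, in 100 mM HEPES pH 7.5, 10 mM MgCl2, 25 mM NaCl, 0.1 mM EDTA, 0.01% Brij. Compound in DMSO preincubated with enzyme 10 min at 30 °C. Ki from initial rates by non-linear regression.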

[2] = target: PKC delta kinase (Homo sapiens, UniProt Q05655); assay: PKC delta kinase inhibition, coupled-enzyme NADH absorbance assay (Ki)
Summary of the method: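 Assay buffer was 100 mM HEPES pH 7.5, 10 mM MgCl2, 25 mM NaCl, 0.1 mM EDTA, 0.01% Brij. Enzyme buffer was equilibrated with compound in DMSO for 10 min at 30 °C. Ki values were derived by non-linear regression of initial rate data.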

[3] = target: PKC alpha kinase (Homo sapiens, UniProt P17252); assay: PKC alpha kinase inhibition, coupled-enzyme NADH absorbance assay (Ki)
[4] = 240 μM ATP, 18 nM PKC theta, 30° C., read-out: Ki PKC theta
[5] = 150 μM ATP, 46 nM PKC delta, 30° C., read-out: Ki PKC delta
[6] = 130 μM ATP, 4.5 nM PKC alpha, 30° C., read-out: Ki PKC alpha

PKC delta kinase, sequence (Q05655 whole entry): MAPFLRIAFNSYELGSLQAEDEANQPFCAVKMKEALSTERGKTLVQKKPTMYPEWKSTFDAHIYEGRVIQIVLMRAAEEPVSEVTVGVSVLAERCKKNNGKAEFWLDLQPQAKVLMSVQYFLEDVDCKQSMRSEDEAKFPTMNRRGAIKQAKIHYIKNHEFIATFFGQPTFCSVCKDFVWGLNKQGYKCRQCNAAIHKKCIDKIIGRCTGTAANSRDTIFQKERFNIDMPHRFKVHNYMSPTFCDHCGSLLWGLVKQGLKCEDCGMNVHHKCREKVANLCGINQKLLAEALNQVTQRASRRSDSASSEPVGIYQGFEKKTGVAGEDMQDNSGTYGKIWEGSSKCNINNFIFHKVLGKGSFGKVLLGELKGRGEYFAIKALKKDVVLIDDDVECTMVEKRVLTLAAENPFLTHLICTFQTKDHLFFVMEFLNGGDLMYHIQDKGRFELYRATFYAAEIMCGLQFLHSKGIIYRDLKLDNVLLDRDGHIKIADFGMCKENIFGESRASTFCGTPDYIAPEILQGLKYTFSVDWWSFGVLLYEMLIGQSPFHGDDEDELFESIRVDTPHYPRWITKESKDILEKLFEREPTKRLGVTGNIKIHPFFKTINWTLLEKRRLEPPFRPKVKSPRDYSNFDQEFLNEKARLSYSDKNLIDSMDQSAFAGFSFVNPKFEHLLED
PKC theta kinase, sequence (Q04759 whole entry): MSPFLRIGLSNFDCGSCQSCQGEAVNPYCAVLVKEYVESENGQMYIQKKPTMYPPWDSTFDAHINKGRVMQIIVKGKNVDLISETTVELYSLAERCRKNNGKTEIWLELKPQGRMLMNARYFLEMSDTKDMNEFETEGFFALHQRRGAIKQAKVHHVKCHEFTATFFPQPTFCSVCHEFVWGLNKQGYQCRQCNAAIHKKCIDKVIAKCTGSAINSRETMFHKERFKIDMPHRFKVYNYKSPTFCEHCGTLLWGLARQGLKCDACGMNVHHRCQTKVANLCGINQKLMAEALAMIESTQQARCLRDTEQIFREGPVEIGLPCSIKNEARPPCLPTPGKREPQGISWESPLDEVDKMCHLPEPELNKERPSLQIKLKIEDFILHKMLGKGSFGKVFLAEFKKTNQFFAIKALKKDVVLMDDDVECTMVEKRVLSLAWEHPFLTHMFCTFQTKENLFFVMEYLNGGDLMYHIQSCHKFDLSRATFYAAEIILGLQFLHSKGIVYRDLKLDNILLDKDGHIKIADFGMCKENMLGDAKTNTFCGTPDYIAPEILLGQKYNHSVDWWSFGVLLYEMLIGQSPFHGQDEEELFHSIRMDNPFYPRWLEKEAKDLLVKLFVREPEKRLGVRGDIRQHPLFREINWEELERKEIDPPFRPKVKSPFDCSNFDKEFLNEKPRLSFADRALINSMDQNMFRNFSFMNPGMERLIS

| Compound | pKi [1, 4] | pKi [2, 5] | pKi [3, 6] | pKi [1] | pKi [2] | pKi [3] |
| --- | --- | --- | --- | --- | --- | --- |
| CCC(F)c1cc(-c2ccnc3[nH]ncc23)cc(C(C)(CC)CN)c1 (stereo not drawn) [Compound 158] | > 6.30 | < 5.70 | > 5.55 |  |  |  |
| CCC(C)(CN)c1cc(-c2ccnc3[nH]ncc23)cc(C(C)F)c1 (stereo not drawn) [Compound 159] | > 7.30 | > 5.55 | > 5.55 |  |  |  |
| CCC(C)(CN)c1cc(CCCF)cc(-c2ccnc3[nH]ncc23)c1 (stereo not drawn) [Compound 160] | > 7.30 | > 5.55 | > 6.30 |  |  |  |
| CCC(C)(CN)c1cc(CCC(F)F)cc(-c2ccnc3[nH]ncc23)c1 (stereo not drawn) [Compound 161] | > 6.30 | < 5.70 | > 5.55 |  |  |  |
| CCC(C)(CN)c1cc(-c2ccnc3[nH]ncc23)cc(C(F)F)c1 (stereo not drawn) [Compound 162] | > 7.30 | > 6.30 | > 6.30 |  |  |  |
| CCC(C)(CN)c1cc(CC(F)(F)F)cc(-c2ccnc3[nH]ncc23)c1 (stereo not drawn) [Compound 163] | > 6.30 | < 5.70 | < 5.92 |  |  |  |
| CCC(C)(CN)c1cc(CCCOC)cc(-c2ccnc3[nH]ncc23)c1 (stereo not drawn) [Compound 164] | > 7.30 | > 5.55 | > 6.30 |  |  |  |
| CCC(C)(CN)c1cc(-c2ccnc3[nH]ncc23)cc(C(C)(F)F)c1 (stereo not drawn) [Compound 165] | > 7.30 | > 6.30 | > 6.30 |  |  |  |
| CCSc1cc(-c2ccnc3[nH]ncc23)cc(C(C)(CC)CN)c1 (stereo not drawn) [Compound 166] | > 7.30 | > 5.55 | > 6.30 |  |  |  |
| CCC(C)(CN)c1cc(Br)cc(-c2ccnc3[nH]ncc23)c1 (stereo not drawn) [Compound 167] | > 7.30 | > 6.30 | > 6.30 |  |  |  |
| CCC(C)(CN)c1cc(CCO)cc(-c2ccnc3[nH]ncc23)c1 (stereo not drawn) [Compound 168] | > 7.30 | > 6.30 | > 6.30 |  |  |  |
| COCCCC(C)(CN)c1cccc(-c2ccnc3[nH]ncc23)c1 (stereo not drawn) [Compound 169] | > 7.30 | > 6.30 | > 5.55 |  |  |  |
| CC(CN)(Cc1cscn1)c1cccc(-c2ccnc3[nH]ncc23)c1 (stereo not drawn) [Compound 170] | > 7.30 | > 5.55 | > 5.55 |  |  |  |
| CC(CN)(Cc1cccnc1)c1cccc(-c2ccnc3[nH]ncc23)c1 (stereo not drawn) [Compound 171] | > 7.30 | > 6.30 | > 6.30 |  |  |  |
| CC(CN)(Cc1ccncc1)c1cccc(-c2ccnc3[nH]ncc23)c1 (stereo not drawn) [Compound 172] | > 7.30 | > 6.30 | > 5.55 |  |  |  |
| COc1cccc(CC(C)(CN)c2cccc(-c3ccnc4[nH]ncc34)c2)c1 (stereo not drawn) [Compound 173] | > 7.30 | > 6.30 | > 6.30 |  |  |  |
| COc1ccc(CC(C)(CN)c2cccc(-c3ccnc4[nH]ncc34)c2)cc1 (stereo not drawn) [Compound 174] | > 7.30 | > 6.30 | > 6.30 |  |  |  |
| CC(CN)(Cc1ccccn1)c1cccc(-c2ccnc3[nH]ncc23)c1 (stereo not drawn) [Compound 175] | > 6.30 | < 5.70 | < 5.92 |  |  |  |
| NCCc1cc(Br)cc(-c2ccnc3[nH]ncc23)c1 [Compound 176] |  |  |  | > 6.30 | > 5.55 | < 5.92 |
| NCC1(c2cccc(-c3ccnc4[nH]ncc34)c2)CCCCC1 [Compound 177] | > 7.30 | > 6.30 | > 5.55 |  |  |  |
| C#CCC(CC)(CN)c1cccc(-c2ccnc3[nH]ncc23)c1 (stereo not drawn) [Compound 178] | > 7.30 | > 6.30 | > 6.30 |  |  |  |
| CC(CN)(CC1CCOCC1)c1cccc(-c2ccnc3[nH]ncc23)c1 (stereo not drawn) [Compound 179] | > 7.30 | > 6.30 | > 6.30 |  |  |  |
| CCC(C)(CN)c1cc(-c2ccnc3[nH]ncc23)cc(C(F)(F)CCC2CCCCC2)c1 (stereo not drawn) [Compound 180] | < 6.15 | < 5.70 | < 5.92 |  |  |  |
| NCC1(c2cccc(-c3ccnc4[nH]ncc34)c2)CCC(F)(F)CC1 [Compound 181] | > 6.30 | > 5.55 | > 5.55 |  |  |  |
| NC[C@]1(c2cccc(-c3ccnc4[nH]ncc34)c2)CC[C@@H](O)CC1 [Compound 182] | > 6.30 | > 5.55 | < 5.92 |  |  |  |
| NC[C@]1(c2cccc(-c3ccnc4[nH]ncc34)c2)CC[C@H](O)CC1 [Compound 183] | > 6.30 | > 5.55 | < 5.92 |  |  |  |
| NCC1(c2cccc(-c3ccnc4[nH]ncc34)c2)CC=C(F)CC1 (stereo not drawn) [Compound 184] | > 7.30 | > 6.30 | > 6.30 |  |  |  |

| Compound | pKi [1, 4] | pKi [2, 5] | pKi [3, 6] | pKi [1] | pKi [2] | pKi [3] |
| --- | --- | --- | --- | --- | --- | --- |
| CC#CC[C@](C)(CN)c1cccc(-c2ccnc3[nH]ncc23)c1 [Compound 185] | > 7.30 | > 7.30 | > 7.30 |  |  |  |
| CC#CC[C@@](C)(CN)c1cccc(-c2ccnc3[nH]ncc23)c1 [Compound 186] | > 6.30 | > 5.55 | > 5.55 |  |  |  |
| CCCc1cc(-c2ccnc3[nH]ncc23)cc(C2(CCN)CCC2)c1 [Compound 187] | > 5.55 | < 5.70 | < 5.92 |  |  |  |
| NCC1(c2cc(F)cc(-c3ccnc4[nH]ncc34)c2)CCC1 [Compound 188] | > 7.30 | > 5.55 | > 6.30 |  |  |  |
| NCC1(c2cc(N)cc(-c3ccnc4[nH]ncc34)c2)CCC1 [Compound 190] | > 6.30 | < 5.70 | < 5.92 |  |  |  |
| FC(F)CC1(c2cccc(-c3ccnc4[nH]ncc34)c2)CNC1 [Compound 191, 4-(3-(3-(2,2-Difluoroethyl)azetidin-3-yl)phenyl)-1H-pyrazolo[3,4-b]pyridine] | > 7.30 | > 6.30 | > 6.30 |  |  |  |
| N#CCC1(c2cccc(-c3ccnc4[nH]ncc34)c2)CNC1 [Compound 192] | > 7.30 | > 6.30 | > 6.30 |  |  |  |
| C=CC1(c2cccc(-c3ccnc4[nH]ncc34)c2)CCNC1 (stereo not drawn) [Compound 193, 4-(3-(3-Vinylpyrrolidin-3-yl)phenyl)-1H-pyrazolo[3,4-b]pyridine] | > 6.30 | > 6.30 | > 6.30 |  |  |  |
| CCC1(c2cccc(-c3ccnc4[nH]ncc34)c2)CCNC1 (stereo not drawn) [Compound 194] | > 7.30 | > 6.30 | > 6.30 |  |  |  |
| CC1(c2cccc(-c3ccnc4[nH]ncc34)c2)CCNC1 (stereo not drawn) [Compound 195] | > 7.30 | > 6.30 | > 5.55 |  |  |  |
| OCC1(c2cccc(-c3ccnc4[nH]ncc34)c2)CCNC1 (stereo not drawn) [Compound 196] | > 7.30 | > 5.55 | > 5.55 |  |  |  |
| C/C=C\C1(c2cccc(-c3ccnc4[nH]ncc34)c2)CCNC1 (stereo not drawn) [Compound 197] | > 7.30 | > 6.30 | > 6.30 |  |  |  |
| CC/C=C\C1(c2cccc(-c3ccnc4[nH]ncc34)c2)CCNC1 (stereo not drawn) [Compound 198] | > 7.30 | > 6.30 | > 6.30 |  |  |  |
| CC(C)=CC1(c2cccc(-c3ccnc4[nH]ncc34)c2)CCNC1 (stereo not drawn) [Compound 199] | > 7.30 | > 6.30 | > 6.30 |  |  |  |
| N#CCC1(c2cccc(-c3ccnc4[nH]ncc34)c2)CCNC1 (stereo not drawn) [Compound 200] | > 7.30 | > 6.30 | > 6.30 |  |  |  |
| FC(F)C1(c2cccc(-c3ccnc4[nH]ncc34)c2)CCNC1 (stereo not drawn) [Compound 201] | > 7.30 | > 6.30 | > 6.30 |  |  |  |
| C=C1CCc2ccc(-c3ccnc4[nH]ncc34)cc21 [Compound 202, 4-(3-Methylene-2,3-dihydro-1H-inden-5-yl)-1H-pyrazolo[3,4-b]pyridine] | < 5.55 | < 5.55 | < 5.55 |  |  |  |
| OCC1CCc2ccc(-c3ccnc4[nH]ncc34)cc21 (stereo not drawn) [Compound 203, (6-(1H-Pyrazolo[3,4-b]pyridin-4-yl)-2,3-dihydro-1H-inden-1-yl)methanol] | > 5.55 | < 5.55 | < 5.55 |  |  |  |
| CCC(C)(CN)c1cccc(-c2ccnc3[nH]nc(Cl)c23)c1 (stereo not drawn) [Compound 204, 2-(3-(3-chloro-1H-pyrazolo[3,4-b]pyridin-4-yl)phenyl)-2-methylbutan-1-amine] | > 7.30 | > 7.30 | > 7.30 |  |  |  |
| N#CC1(c2cccc(-c3ccnc4[nH]nc(Cl)c34)c2)CC1 [Compound 205] | > 7.30 | > 7.30 | > 6.30 |  |  |  |
| NCC1(c2cccc(-c3ccnc4[nH]nc(Cl)c34)c2)CCOCC1 [Compound 206] | > 7.30 | > 6.30 | > 6.30 |  |  |  |
| Cc1cc(-c2ccnc3[nH]nc(Cl)c23)cc(C2(CN)CCC2)c1 [Compound 207] | > 7.30 | > 6.30 | > 6.30 |  |  |  |
| CCC(C)(CN)c1cc(CCCO)cc(-c2ccnc3[nH]nc(Cl)c23)c1 (stereo not drawn) [Compound 208] | > 7.30 | > 6.30 | > 6.30 |  |  |  |
| Cc1cc(-c2ccnc3[nH]nc(Cl)c23)cc(C2(CN)CCOCC2)c1 [Compound 209] | > 7.30 | > 6.30 | > 6.30 |  |  |  |
| CCCc1cc(-c2ccnc3[nH]nc(Cl)c23)cc(C(C)(CC)CN)c1 (stereo not drawn) [Compound 210] | > 7.30 | > 5.55 | > 6.30 |  |  |  |
| CCc1cc(-c2ccnc3[nH]nc(Cl)c23)cc(C2(CN)CCC2)c1 [Compound 211] | > 7.30 | > 5.55 | > 6.30 |  |  |  |
| CCC(C)(CN)c1cccc(-c2ccnc3[nH]nc(C)c23)c1 (stereo not drawn) [Compound 212, 2-methyl-2-(3-(3-methyl-1H-pyrazolo[3,4-b]pyridin-4-yl)phenyl)butan-1-amine] | > 7.30 | > 7.30 | > 7.30 |  |  |  |
